# Columns and labels:
# [1] = Drug level in plasma of Sprague-Dawley rat at 10 mg/kg, po administered as single dose via gavage measured at 2 hrs by LC-MS/MS analysis; type: ADME, organism-based
# [2] = Ratio of AUC (0 to 48 hrs) in brain to plasma of Sprague-Dawley rat at 10 mg/kg, po administered as single dose via gavage by LC-MS/MS analysis; type: ADME, organism-based; conditions: brain and plasma, read-out: Ratio AUC
# Cytochrome P450 2C9 = Cytochrome P450 2C9 (Homo sapiens, UniProt P11712); test: Inhibition of CYP2C9 in human liver microsomes using diclofenac as substrate preincubated for 5 mins followed by NADPH cofactor addition and measured after 10 mins by LC-MS/MS analysis; type: ADME
# [3] = Drug level in plasma of Sprague-Dawley rat at 10 mg/kg, po administered as single dose via gavage measured at 32 hrs by LC-MS/MS analysis; type: ADME, organism-based
# [4] = AUC (0 to 48 hrs) in Sprague-Dawley rat at 3 mg/kg, iv administered as single dose by LC-MS/MS analysis; type: ADME, organism-based; design: dose 3 mg/kg, time < 48 hr, route intravenous; conditions: in vivo
# [5] = Drug level in liver of Sprague-Dawley rat at 10 mg/kg, po administered as single dose via gavage measured at 32 hrs by LC-MS/MS analysis; type: ADME, organism-based; conditions: read-out: Drug uptake
# [6] = Cmax in Sprague-Dawley rat at 10 mg/kg, po administered as single dose via gavage by LC-MS/MS analysis; type: ADME, organism-based; design: dose 10 mg/kg, route oral; conditions: in vivo
# [7] = Drug level in liver of Sprague-Dawley rat at 10 mg/kg, po administered as single dose via gavage measured at 24 hrs by LC-MS/MS analysis; type: ADME, organism-based; conditions: read-out: Drug uptake
# [8] = Volume of distribution at steady state in Sprague-Dawley rat at 3 mg/kg, iv administered as single dose by LC-MS/MS analysis; type: ADME, organism-based; conditions: in vivo, read-out: Vdss
# [9] = Drug level in liver of Sprague-Dawley rat at 10 mg/kg, po administered as single dose via gavage measured at 2 hrs by LC-MS/MS analysis; type: ADME, organism-based; conditions: read-out: Drug uptake
# Cytochrome P450 1A2 = target: T1, Cytochrome P450 1A2 (Homo sapiens, UniProt P05177); test: Inhibition of CYP1A2 in human liver microsomes using phenacetin as substrate preincubated for 5 mins followed by NADPH cofactor addition and measured after 10 mins by LC-MS/MS analysis; type: ADME
# T1 sequence (P05177 whole entry): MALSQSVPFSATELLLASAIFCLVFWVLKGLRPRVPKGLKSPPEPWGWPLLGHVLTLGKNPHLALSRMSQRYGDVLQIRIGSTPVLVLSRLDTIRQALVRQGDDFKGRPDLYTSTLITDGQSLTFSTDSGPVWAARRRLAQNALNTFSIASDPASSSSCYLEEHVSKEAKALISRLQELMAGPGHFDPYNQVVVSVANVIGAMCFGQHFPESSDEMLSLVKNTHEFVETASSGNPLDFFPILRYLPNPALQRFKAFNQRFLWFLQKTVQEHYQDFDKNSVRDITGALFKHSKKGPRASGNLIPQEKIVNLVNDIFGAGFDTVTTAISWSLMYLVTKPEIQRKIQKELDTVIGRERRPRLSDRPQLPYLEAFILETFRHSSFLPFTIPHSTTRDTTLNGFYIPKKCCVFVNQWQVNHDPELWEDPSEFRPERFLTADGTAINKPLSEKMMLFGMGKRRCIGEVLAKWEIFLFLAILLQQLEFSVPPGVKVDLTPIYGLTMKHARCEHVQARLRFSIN
# [10] = Elimination half life in Sprague-Dawley rat at 3 mg/kg, iv administered as single dose by LC-MS/MS analysis; type: ADME, organism-based; conditions: in vivo, read-out: beta t1/2 (converted)
# Cytochrome P450 2D6 = Cytochrome P450 2D6 (Homo sapiens, UniProt P10635); test: Inhibition of CYP2D6 in human liver microsomes using dextromethorphan as substrate preincubated for 5 mins followed by NADPH cofactor addition and measured after 10 mins by LC-MS/MS analysis; type: ADME
# [11] = Drug level in liver of Sprague-Dawley rat at 10 mg/kg, po administered as single dose via gavage measured at 4 hrs by LC-MS/MS analysis; type: ADME, organism-based; conditions: read-out: Drug uptake
# [12] = Drug level in plasma of Sprague-Dawley rat at 10 mg/kg, po administered as single dose via gavage measured at 4 hrs by LC-MS/MS analysis; type: ADME, organism-based
# [13] = AUC (0 to 48 hrs) in liver of Sprague-Dawley rat at 10 mg/kg, po administered as single dose via gavage by LC-MS/MS analysis; type: ADME, organism-based; design: time < 48 hr, dose 10 mg/kg, route oral
# [14] = Drug level in liver of Sprague-Dawley rat at 10 mg/kg, po administered as single dose via gavage measured at 8 hrs by LC-MS/MS analysis; type: ADME, organism-based; conditions: read-out: Drug uptake
# [15] = Drug level in brain of Sprague-Dawley rat at 10 mg/kg, po administered as single dose via gavage measured at 8 hrs by LC-MS/MS analysis; type: ADME, organism-based; conditions: read-out: Drug uptake
# Cytochrome P450 2C19 = Cytochrome P450 2C19 (Homo sapiens, UniProt P33261); test: Inhibition of CYP2C19 in human liver microsomes using (S)-mephenytoin as substrate preincubated for 5 mins followed by NADPH cofactor addition and measured after 40 mins by LC-MS/MS analysis; type: ADME
# [16] = Elimination half life in Sprague-Dawley rat at 3 mg/kg, iv or 10 mg/kg, po administered as single dose via gavage by LC-MS/MS analysis; type: ADME, organism-based; conditions: in vivo, read-out: beta t1/2 (converted)
# [17] = Ratio of AUC (0 to 48 hrs) in liver to plasma of Sprague-Dawley rat at 10 mg/kg, po administered as single dose via gavage by LC-MS/MS analysis; type: ADME, organism-based; conditions: liver and plasma, read-out: Ratio AUC
# Cytochrome P450 3A4 = Cytochrome P450 3A4 (Homo sapiens, UniProt P08684); test: Inhibition of CYP3A4 in human liver microsomes using midazolam as substrate preincubated for 5 mins followed by NADPH cofactor addition and measured after 10 mins by LC-MS/MS analysis; type: ADME
# [18] = Drug level in plasma of Sprague-Dawley rat at 10 mg/kg, po administered as single dose via gavage measured at 8 hrs by LC-MS/MS analysis; type: ADME, organism-based
# [19] = Clearance in Sprague-Dawley rat at 3 mg/kg, iv or 10 mg/kg, po administered as single dose via gavage by LC-MS/MS analysis; type: ADME, organism-based; conditions: in vivo
# [20] = Drug level in brain of Sprague-Dawley rat at 10 mg/kg, po administered as single dose via gavage measured at 2 hrs by LC-MS/MS analysis; type: ADME, organism-based; conditions: read-out: Drug uptake
# [21] = Drug level in liver of Sprague-Dawley rat at 10 mg/kg, po administered as single dose via gavage measured at 48 hrs by LC-MS/MS analysis; type: ADME, organism-based; conditions: read-out: Drug uptake
# [22] = Volume of distribution at steady state in Sprague-Dawley rat at 3 mg/kg, iv or 10 mg/kg, po administered as single dose via gavage by LC-MS/MS analysis; type: ADME, organism-based; conditions: in vivo, read-out: Vdss
# [23] = Intrinsic metabolic stability in human liver microsomes assessed as metabolic turnover rate per mg protein at 1 uM preincubated for 5 mins followed by NADPH cofactor addition and measured after 30 mins by LC-MS/MS analysis; type: ADME, Microsome; conditions: 0.5 h
# [24] = Intrinsic metabolic stability in rat liver microsomes assessed as metabolic turnover over per mg protein at 1 uM preincubated for 5 mins followed by NADPH cofactor addition and measured after 30 mins by LC-MS/MS analysis; type: ADME, Microsome; conditions: 0.5 h
# Chain of Cytochrome P450 2C19 (P33261 whole entry): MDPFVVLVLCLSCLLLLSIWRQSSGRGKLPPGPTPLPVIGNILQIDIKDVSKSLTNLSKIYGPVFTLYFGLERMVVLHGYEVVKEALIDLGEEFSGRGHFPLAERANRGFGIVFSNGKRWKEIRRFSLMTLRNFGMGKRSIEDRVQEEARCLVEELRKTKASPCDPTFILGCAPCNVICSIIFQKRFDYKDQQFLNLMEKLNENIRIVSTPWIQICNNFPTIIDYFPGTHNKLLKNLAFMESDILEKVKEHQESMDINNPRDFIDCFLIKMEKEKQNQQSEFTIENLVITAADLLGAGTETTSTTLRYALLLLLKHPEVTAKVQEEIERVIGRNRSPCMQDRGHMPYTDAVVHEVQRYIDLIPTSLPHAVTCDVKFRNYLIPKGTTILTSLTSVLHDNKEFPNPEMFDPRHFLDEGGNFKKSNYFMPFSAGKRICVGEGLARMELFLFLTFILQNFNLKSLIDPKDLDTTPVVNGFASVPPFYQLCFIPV
# Chain of Cytochrome P450 2C9 (P11712 whole entry): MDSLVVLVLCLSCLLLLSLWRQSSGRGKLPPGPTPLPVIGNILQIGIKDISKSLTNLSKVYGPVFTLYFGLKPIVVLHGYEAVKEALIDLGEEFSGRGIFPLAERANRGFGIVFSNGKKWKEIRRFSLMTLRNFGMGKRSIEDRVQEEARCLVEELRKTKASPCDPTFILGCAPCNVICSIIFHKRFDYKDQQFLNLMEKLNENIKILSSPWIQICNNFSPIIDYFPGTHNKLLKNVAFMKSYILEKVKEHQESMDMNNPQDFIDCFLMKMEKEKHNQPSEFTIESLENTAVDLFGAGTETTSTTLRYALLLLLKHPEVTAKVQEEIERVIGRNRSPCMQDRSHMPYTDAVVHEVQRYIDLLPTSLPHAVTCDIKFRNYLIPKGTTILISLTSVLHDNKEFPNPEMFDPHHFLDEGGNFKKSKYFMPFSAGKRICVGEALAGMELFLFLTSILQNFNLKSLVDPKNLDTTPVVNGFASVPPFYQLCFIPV
# Chain of Cytochrome P450 3A4 (P08684 whole entry): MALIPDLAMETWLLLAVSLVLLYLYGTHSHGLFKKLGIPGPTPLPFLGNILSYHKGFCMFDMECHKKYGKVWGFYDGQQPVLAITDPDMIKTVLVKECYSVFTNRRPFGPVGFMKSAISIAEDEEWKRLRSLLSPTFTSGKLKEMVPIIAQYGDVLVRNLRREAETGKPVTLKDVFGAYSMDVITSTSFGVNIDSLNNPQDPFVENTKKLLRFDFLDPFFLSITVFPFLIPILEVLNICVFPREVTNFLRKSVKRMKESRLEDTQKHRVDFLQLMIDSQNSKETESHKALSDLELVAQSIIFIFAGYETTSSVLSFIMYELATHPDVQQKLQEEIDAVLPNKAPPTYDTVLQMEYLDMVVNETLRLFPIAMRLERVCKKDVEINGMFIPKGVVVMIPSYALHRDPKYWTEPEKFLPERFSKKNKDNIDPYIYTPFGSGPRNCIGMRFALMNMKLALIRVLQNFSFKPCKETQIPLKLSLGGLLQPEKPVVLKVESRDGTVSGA
# Chain of Cytochrome P450 2D6 (P10635 whole entry): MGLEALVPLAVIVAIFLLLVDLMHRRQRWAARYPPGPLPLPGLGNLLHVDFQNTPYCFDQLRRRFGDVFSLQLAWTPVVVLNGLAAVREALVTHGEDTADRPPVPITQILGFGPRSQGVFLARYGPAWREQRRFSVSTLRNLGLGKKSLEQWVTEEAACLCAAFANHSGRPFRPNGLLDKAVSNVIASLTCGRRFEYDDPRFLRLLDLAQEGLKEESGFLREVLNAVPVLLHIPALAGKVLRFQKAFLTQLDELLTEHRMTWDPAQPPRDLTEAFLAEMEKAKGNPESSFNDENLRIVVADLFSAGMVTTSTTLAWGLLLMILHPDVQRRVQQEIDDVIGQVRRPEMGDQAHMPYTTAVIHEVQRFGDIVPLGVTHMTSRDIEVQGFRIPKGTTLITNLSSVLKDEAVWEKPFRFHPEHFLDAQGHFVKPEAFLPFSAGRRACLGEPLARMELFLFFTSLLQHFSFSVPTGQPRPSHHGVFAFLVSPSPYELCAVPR
Structure (SMILES),concentration at 2 h [1] [µM],Kp [2],IC50 (Cytochrome P450 2C9) [µM],concentration at 32 h [3] [nM],AUC(0-t) at 48 h [4] [µM·h],concentration at 32 h [5] [µM],Cmax [6] [µM],concentration at 24 h [7] [µM],Vd [8] [L/kg],concentration at 2 h [9] [µM],IC50 (Cytochrome P450 1A2) [µM],half-life [10] [min],IC50 (Cytochrome P450 2D6) [µM],concentration at 4 h [11] [µM],concentration at 4 h [12] [µM],AUC(0-t) at 48 h [13] [µM·h],concentration at 8 h [14] [µM],concentration at 8 h [15] [µM],IC50 (Cytochrome P450 2C19) [µM],half-life [16] [min],also measured
Nc1ccc(C(=O)N[C@H]2CC/C(=C\c3cccc(Oc4ccc(C(F)(F)F)cn4)c3)CC2)cn1 (stereo unspecified),8.8,0.6,3.4,2200,152,26.5,8.8,33,0.6,72.6,> 12.5,552,> 12.5,69.7,8.6,1950,74.9,5.2,9.1,552,Kp [17]: 9.2; IC50 (Cytochrome P450 3A4): > 12.5 µM; concentration at 8 h [18]: 8.2 µM; clearance [19]: 0.7 mL/min/kg; concentration at 2 h [20]: 5.1 µM; concentration at 48 h [21]: 16.2 µM; Vd [22]: 0.6 L/kg
Nc1ncc(C(=O)N[C@H]2CC/C(=C\c3cccc(Oc4ccc(C(F)(F)F)cn4)c3)CC2)cn1 (stereo unspecified),7.2,0.8,6.5,2700,155,13,7.8,23,0.8,31,> 12.5,1030,> 12.5,38,7.8,1020,34,7.2,> 12.5,1030,Drug metabolism [23]: ≤ 0.04 nmol/min/mg; Drug metabolism [24]: ≤ 0.04 nmol/min/mg; Kp [17]: 4.3; IC50 (Cytochrome P450 3A4): > 12.5 µM; concentration at 8 h [18]: 7.3 µM; clearance [19]: 0.6 mL/min/kg; concentration at 2 h [20]: 6.5 µM; concentration at 48 h [21]: 8.9 µM; Vd [22]: 0.8 L/kg

# — ChEMBL document CHEMBL4371025, “Discovery and evaluation of novel FAAH inhibitors in neuropathic pain model” (Bioorg Med Chem Lett, 2019)
